# Patent US10011814B2, “Salt formulations for the fermentation of marine microorganisms” (Triphase Research and Development I Corp., priority 2006, dated 2018)
# Tested on: Salinispora tropica NPS021184
# Assay: Production of Salinosporamide A and analogs in shake flask or tube culture; titers by HPLC of EtOAc extract
# Details: for % Increase (+) or % decrease (−) of maximum titer: Ex.1 Table 1; for % Increase (+) or % decrease (−) of max titer: Ex.1 Table 2; for % increase/decrease of titer / relative % change (of % relative to Sal A): Ex.2 Table 3; for % Increase (+) or % decrease (−) of average max titer: Ex.2 Table 4
# Experimental: Seed cultures were prepared by inoculating frozen stock of Salinispora tropica NPS021184 into seed medium.
# The first seed cultures (either 10 mL medium in a 50-mL tube or 100 mL medium in a 500-mL Erlenmeyer flask) were incubated for 3 to 4 days before inoculating into the second seed media with the same composition as the first seed cultures. The second seed cultures (100 mL medium in a 500-mL Erlenmeyer flask) were incubated for two days before inoculating into the production medium (100 mL medium in a 500-mL Erlenmeyer flask).
# The chemically defined salt formulation included: […]
# 3.5 mL of the fermentation culture was mixed with equal volume of EtOAc in an extraction tube to extract the various metabolites from the production culture. The mixture was shaken on a shaker for one hr. An aliquot of the extract (1 mL) was removed and dried under a stream of nitrogen. The dried extract was stored at −20° C. freezer before HPLC analysis. The dried extract was resuspended in 320 μL DMSO and injected into HPLC using the 00TF14 method for analysis.
# The production of Salinosporamide A, NPI-0047 and NPI-2065 was monitored by Agilent HP1100 HPLC using an ACE C-18 reversed-phase column (4.6×150 mm), and solvent system consisting of water (0.01% TFA) as solvent A and acetonitrile (0.01% TFA) as solvent B. The elution was started at 100% solvent A for 1 min, 100% solvent A to 35% solvent A gradient in 7 min, held at 35% solvent A for 11 min, 35% solvent A to 100% solvent B in 8 min and held at 100% solvent B for 9 min at a flow rate of 1.5 mL/min with the detector wavelength set at 210 nm and column temperature 35° C.
# The first seed cultures (either 10 mL medium in a 50-mL tube or 100 ml medium in a 500-ml Erlenmeyer flask) were incubated for 3 to 4 days before inoculating into the second seed media with the same composition as the first seed cultures. The second seed cultures (100 mL medium in a 500-mL Erlenmeyer flask) were incubated for two days before inoculating into the production medium (100 mL medium in a 500-mL Erlenmeyer flask).
# The first seed cultures (either 10 mL medium in a 50-ml tube or 100 mL medium in a 500-mL Erlenmeyer flask) were incubated for 3 to 4 days before inoculating into the second seed media with the same composition as the first seed cultures. The second seed cultures (100 mL medium in a 500-mL Erlenmeyer flask) were incubated for two days before inoculating into production medium (100 mL medium in a 500-mL Erlenmeyer flask).
# 3.5 mL of the fermentation culture was mixed with equal volume of EtOAc in an extraction tube to extract the various metabolites from the production culture. The mixture was shaken for 1 hr. An aliquot of the extract (1 mL) was removed and dried under a stream of nitrogen. The dried extract was stored at −20° C. freezer before HPLC analysis. The dried extract was resuspended in […] DMSO and injected into HPLC using the TFS7 method for analysis.
# The production of Salinosporamide A, NPI-0047 and NPI-2065 was monitored by Agilent HP1100 HPLC using an ACE C-18 reversed-phase column (4.6×150 mm), and isocratic solvent system consisting of 67% water (0.01% TFA) and 33% acetonitrile (0.01% TFA). The flow rate was 1.5 mL/min for 15 min with the detector wavelength set at 210 nm and column temperature 35° C.
# 3.5 mL of the fermentation culture was mixed with equal volume of EtOAc in an extraction tube to extract the various metabolites from the production culture. The mixture was shaken on the shaker for 1 hr. An aliquot of the extract (1 mL) was removed and dried under a stream of nitrogen. The dried extract was stored at −20° C. freezer before HPLC analysis. The dried extract was resuspended in 320 μL DMSO and injected into HPLC using the TFS7 method for analysis. […]
# [1] = seed CoCl2·6H2O 0 μg/L (reference)
# [2] = seed CoCl2·6H2O 2.6 μg/L vs 0 μg/L
# [3] = seed CoCl2·6H2O 5.2 μg/L vs 0 μg/L
# [4] = seed CoCl2·6H2O 13 μg/L vs 0 μg/L
# [5] = seed CoCl2·6H2O 26 μg/L vs 0 μg/L
# [6] = seed CoCl2·6H2O 52 μg/L vs 0 μg/L
# [7] = seed CoCl2·6H2O 104 μg/L vs 0 μg/L
# [8] = seed CoCl2·6H2O 208 μg/L vs 0 μg/L
# [9] = seed CoCl2·6H2O 416 μg/L vs 0 μg/L
compound,measurement,setting,value
"CC[C@H]1C(=O)N[C@@]2([C@@H](O)[C@@H]3C=CCCC3)C(=O)O[C@@]12C [NPI-0047, Salinosporamide B]",% Increase (+) or % decrease (−) of maximum titer,104 μg/L CoCl2·6H2O in production medium vs no addition,−65.9%
same,% Increase (+) or % decrease (−) of maximum titer,1.04 mg/L CoCl2·6H2O in production medium vs no addition,−67.4%
same,% Increase (+) or % decrease (−) of maximum titer,10.4 mg/L CoCl2·6H2O in production medium vs no addition,−71.3%
same,% Increase (+) or % decrease (−) of max titer,2.6 μg/L CoCl2·6H2O in production medium vs control,−18.6%
same,% Increase (+) or % decrease (−) of max titer,5.2 μg/L CoCl2·6H2O in production medium vs control,−41.2%
same,% Increase (+) or % decrease (−) of max titer,6.5 μg/L CoCl2·6H2O in production medium vs control,−38.2%
same,% Increase (+) or % decrease (−) of max titer,13 μg/L CoCl2·6H2O in production medium vs control,−52.0%
same,% Increase (+) or % decrease (−) of max titer,26 μg/L CoCl2·6H2O in production medium vs control,−63.7%
same,% Increase (+) or % decrease (−) of max titer,52 μg/L CoCl2·6H2O in production medium vs control,−69.6%
same,% Increase (+) or % decrease (−) of max titer,104 μg/L CoCl2·6H2O in production medium vs control,−65.7%
same,% Increase (+) or % decrease (−) of max titer,208 μg/L CoCl2·6H2O in production medium vs control,−69.6%
same,% Increase (+) or % decrease (−) of max titer,416 μg/L CoCl2·6H2O in production medium vs control,−73.5%
same,reduction of concentration in the fermentation,"Ex.14, 0.22 μM vitamin B12 added to production medium (Instant Ocean based)",74%
same,reduction of production,"Ex.1, 52 μg/L cobalt concentration in production medium vs control",69.6%
same,decrease in production,"Ex.1, 104 μg/L CoCl2·6H2O added to production medium vs none",66%
same,% increase/decrease of titer,[1],0.0%
same,relative % change (of % relative to Sal A),[1],0.0%
same,% increase/decrease of titer,[2],5.9%
same,relative % change (of % relative to Sal A),[2],4.2%
same,% increase/decrease of titer,[3],2.0%
same,relative % change (of % relative to Sal A),[3],−2.7%
same,% increase/decrease of titer,[4],−17.2%
same,relative % change (of % relative to Sal A),[4],−20.2%
same,% increase/decrease of titer,[5],−2.3%
same,relative % change (of % relative to Sal A),[5],−28.4%
same,% increase/decrease of titer,[6],−21.6%
same,relative % change (of % relative to Sal A),[6],−36.1%
same,% increase/decrease of titer,[7],−9.2%
same,relative % change (of % relative to Sal A),[7],−29.9%
same,% increase/decrease of titer,[8],−11.9%
same,relative % change (of % relative to Sal A),[8],−41.3%
same,% increase/decrease of titer,[9],−10.4%
same,relative % change (of % relative to Sal A),[9],−21.5%
same,% Increase (+) or % decrease (−) of average max titer,CoCl2·6H2O seed 0 / production 52 μg/L vs no cobalt,−71.7%
same,% Increase (+) or % decrease (−) of average max titer,CoCl2·6H2O seed 208 μg/L / production 52 μg/L vs no cobalt,−78.0%
same,reduction of production by cobalt,"Ex.21, NPS21184, CoCl2·6H2O 208 μg/L seed, 52 μg/L production vs no cobalt",91%
same,relative decrease in production (relative to Salinosporamide A),"Ex.2, 208 μg/L CoCl2·6H2O in seed medium, 52 μg/L in production medium vs no cobalt in seed",41.3%
same,reduction of production,"Ex.2, cobalt in both seed (208 μg/L) and production (52 μg/L) media vs media without cobalt",78.0%
same,reduction of production,"Ex.2, cobalt in seed and production media vs cobalt in production medium only",22.2%
